PubChem BioAssay (NCI)
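Briefly, cells in 96-well plates were exposed to five compound concentrations for 48 h, and endpoints were estimated by linear interpolation. GI50 is the concentration that inhibits growth by half. At the TGI there is no net growth.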

Key:
Test in all cases: NCI tumour cell line growth inhibition, 48 h
[1] = test system: NCI-H226 lung
[2] = test system: U251 CNS
[3] = test system: HOP-92 NSCLC
[4] = test system: A549 NSCLC
[5] = test system: MCF7 breast
[6] = test system: 786-0 renal
[7] = test system: UO-31 renal
[8] = test system: LOX IMVI melanoma
[9] = test system: SNB-19 CNS
[10] = test system: SR leukemia
[11] = test system: K-562 leukemia
[12] = test system: SK-OV-3 ovarian
[13] = test system: SK-MEL-2 melanoma
[14] = test system: IGROV1 ovarian
[15] = test system: RXF 393 renal
[16] = test system: MDA-MB-435
[17] = test system: EKVX NSCLC
[18] = test system: HCT-15 colon
[19] = test system: COLO 205 colon
[20] = test system: BT-549 breast
[21] = test system: T-47D breast
[22] = test system: TK-10 renal
[23] = test system: SF-539 CNS
[24] = test system: SN12C renal
[25] = test system: HT29 colon
[26] = test system: SK-MEL-28 melanoma
[27] = test system: MALME-3M melanoma
[28] = test system: NCI-H460 lung
[29] = test system: OVCAR-3 ovarian
[30] = test system: DU-145 prostate
[31] = test system: MDA-MB-231 breast
[32] = test system: OVCAR-8 ovarian
[33] = test system: HL-60(TB) leukemia
[34] = test system: NCI-H522 lung
[35] = test system: HS 578T breast
[36] = test system: RPMI-8226 leukemia
[37] = test system: KM12 colon
[38] = test system: OVCAR-4 ovarian
[39] = test system: CCRF-CEM leukemia
[40] = test system: PC-3 prostate
[41] = test system: OVCAR-5 ovarian
[42] = test system: UACC-257 melanoma
[43] = test system: NCI-H23 lung
[44] = test system: A498 renal
[45] = test system: SK-MEL-5 melanoma
[46] = test system: SNB-75 CNS
[47] = test system: M14 melanoma
[48] = test system: ACHN renal
[49] = test system: SF-295 CNS
[50] = test system: HCT-116 colon
[51] = test system: MOLT-4 leukemia
[52] = test system: NCI/ADR-RES ovarian
[53] = test system: SF-268 CNS
[54] = test system: HOP-62 NSCLC
[55] = test system: UACC-62 melanoma
[56] = test system: SW-620 colon
[57] = test system: CAKI-1 renal
[58] = test system: HCC-2998 colon

`CCOC(=O)/C(=C(/C)NCC(C)C)c1cc(O)c(O)c2c(C)cc(=O)[nH]c12` was tested, and the GI50 [1] was 10.6 µM, the TGI [1] was over 100 µM and the GI50 [2] was 8.68 µM. The TGI [2] was 50.9 µM, the GI50 [3] was 9.51 µM and the TGI [3] was 45 µM. For the same compound, the GI50 [4] was 7.8 µM, the TGI [4] was over 100 µM and the GI50 [5] was 4.38 µM. For the same compound, the TGI [5] was over 100 µM, the GI50 [6] was 12.2 µM and the TGI [6] was 46.4 µM. It also gave a GI50 [7] of 46.1 µM, a TGI [7] of over 100 µM and a GI50 [8] of 5.78 µM. For the same compound, the TGI [8] was over 100 µM, the GI50 [9] was 13.8 µM and the TGI [9] was over 100 µM. For the same compound, the GI50 [10] was 4.02 µM, the TGI [10] was over 100 µM and the GI50 [11] was 6.8 µM. For the same compound, the TGI [11] was over 100 µM, the GI50 [12] was 13 µM and the TGI [12] was over 100 µM. For the same compound, the GI50 [13] was 5.92 µM, the TGI [13] was over 100 µM and the GI50 [14] was 9.21 µM. The TGI [14] was over 100 µM, the GI50 [15] was 1.18 µM and the TGI [15] was 20.4 µM. It also gave a GI50 [16] of 5.93 µM, a TGI [16] of over 100 µM and a GI50 [17] of 5.45 µM. It also gave a TGI [17] of over 100 µM, a GI50 [18] of 2.2 µM and a TGI [18] of over 100 µM. It also gave a GI50 [19] of over 100 µM, a TGI [19] of over 100 µM and a GI50 [20] of 6.22 µM. The TGI [20] was 66.7 µM, the GI50 [21] was 5.09 µM and the TGI [21] was over 100 µM. For the same compound, the GI50 [22] was 9.18 µM, the TGI [22] was 68.3 µM and the GI50 [23] was 5.52 µM. The TGI [23] was 85.1 µM, the GI50 [24] was 4.96 µM and the TGI [24] was over 100 µM. For the same compound, the GI50 [25] was over 100 µM, the TGI [25] was over 100 µM and the GI50 [26] was 34.7 µM. For the same compound, the TGI [26] was over 100 µM, the GI50 [27] was 11.4 µM and the TGI [27] was 70.8 µM. It also gave a GI50 [28] of 4.32 µM, a TGI [28] of over 100 µM and a GI50 [29] of 3.16 µM. It also gave a TGI [29] of over 100 µM, a GI50 [30] of 10.5 µM and a TGI [30] of over 100 µM. For the same compound, the GI50 [31] was 4 µM, the TGI [31] was 94.1 µM and the GI50 [32] was 4.87 µM. It also gave a TGI [32] of over 100 µM, a GI50 [33] of 2.63 µM and a TGI [33] of over 100 µM. For the same compound, the GI50 [34] was 3.02 µM, the TGI [34] was 51.6 µM and the GI50 [35] was 13.4 µM. For the same compound, the TGI [35] was 57.3 µM, the GI50 [36] was 3.5 µM and the TGI [36] was over 100 µM. It also gave a GI50 [37] of 12.4 µM, a TGI [37] of over 100 µM and a GI50 [38] of 2.62 µM. It also gave a TGI [38] of 50 µM, a GI50 [39] of 1.4 µM and a TGI [39] of 55.5 µM. The GI50 [40] was 11.1 µM, the TGI [40] was over 100 µM and the GI50 [41] was 64.7 µM. The TGI [41] was over 100 µM, the GI50 [42] was 14.3 µM and the TGI [42] was over 100 µM. The GI50 [43] was 5.48 µM, the TGI [43] was over 100 µM and the GI50 [44] was 8.31 µM. For the same compound, the TGI [44] was 29.7 µM, the GI50 [45] was 11.1 µM and the TGI [45] was over 100 µM. The GI50 [46] was 3.85 µM, the TGI [46] was 29.8 µM and the GI50 [47] was 4.53 µM. It also gave a TGI [47] of over 100 µM, a GI50 [48] of 7.99 µM and a TGI [48] of over 100 µM. It also gave a GI50 [49] of 4.46 µM, a TGI [49] of 48.1 µM and a GI50 [50] of 3.19 µM. It also gave a TGI [50] of 30.6 µM, a GI50 [51] of 3.8 µM and a TGI [51] of over 100 µM. It also gave a GI50 [52] of 2.42 µM, a TGI [52] of 95.7 µM and a GI50 [53] of 4.67 µM. It also gave a TGI [53] of over 100 µM, a GI50 [54] of 10.3 µM and a TGI [54] of 37 µM. For the same compound, the GI50 [55] was 7.12 µM, the TGI [55] was over 100 µM and the GI50 [56] was 4.95 µM. The TGI [56] was over 100 µM, the GI50 [57] was 5.17 µM and the TGI [57] was over 100 µM.
`COc1cc(/C=C/C(=O)CC(=O)/C=C/c2ccc(O)c(OC)c2)ccc1O` was tested, and the TGI [1] was 53.7 µM, the TGI [2] was 16.5 µM and the TGI [4] was 31.7 µM. For the same compound, the TGI [5] was 34.3 µM, the TGI [6] was 10.8 µM and the TGI [7] was 24.8 µM. It also gave a TGI [8] of 15.5 µM, a TGI [9] of 15.7 µM and a TGI [10] of 14.6 µM. It also gave a TGI [11] of over 55.6 µM, a TGI [12] of 21 µM and a TGI [13] of 40.3 µM. The TGI [14] was 26.7 µM, the TGI [15] was 11.3 µM and the TGI [16] was 12.1 µM. It also gave a TGI [17] of […], a TGI [18] of 18.5 µM and a TGI [19] of 28.9 µM. For the same compound, the TGI [20] was 13.7 µM, the TGI [21] was 46.9 µM and the TGI [22] was 30.6 µM. For the same compound, the TGI [23] was 8.87 µM, the TGI [24] was 25.1 µM and the TGI [25] was 32.4 µM. It also gave a TGI [26] of 15.9 µM, a TGI [27] of 27.4 µM and a TGI [28] of 23.1 µM. The TGI [29] was 24.7 µM, the TGI [30] was 29.7 µM and the TGI [31] was 55.7 µM. The TGI [32] was 28.4 µM, the TGI [33] was 25 µM and the TGI [34] was 16.7 µM. For the same compound, the TGI [35] was 58.5 µM, the TGI [36] was 6.28 µM and the TGI [37] was 19.7 µM. The TGI [58] was 8.08 µM, the TGI [38] was 36.6 µM and the TGI [39] was 15.6 µM. The TGI [40] was 26 µM, the TGI [41] was […] and the TGI [42] was 23.9 µM. It also gave a TGI [43] of 31.8 µM, a TGI [44] of 33.1 µM and a TGI [45] of 22.5 µM. For the same compound, the TGI [46] was 18 µM, the TGI [47] was 16 µM and the TGI [48] was 28.9 µM. It also gave a TGI [49] of 20.7 µM, a TGI [50] of 9.36 µM and a TGI [51] of 18 µM. For the same compound, the TGI [52] was 27.6 µM, the TGI [53] was 36.1 µM and the TGI [54] was 19.1 µM. For the same compound, the TGI [55] was 20.6 µM, the TGI [56] was 21.2 µM and the TGI [57] was 25.1 µM.
`CC(=O)O[C@H]1C(=O)[C@@]2(C)[C@H]([C@H](OC(=O)c3ccccc3)[C@]3(O)C[C@H](OC(=O)[C@H](O)[C@@H](NC(=O)C(C)(C)C)c4ccccc4)C(C)=C1C3(C)C)[C@]1(OC(C)=O)CO[C@@H]1C[C@@H]2O` was tested, and the TGI [1] was over 10 µM, the TGI [2] was over 3.9 µM and the TGI [3] was over 10 µM. For the same compound, the TGI [4] was over 10 µM, the TGI [5] was over 10 µM and the TGI [6] was over 5.47 µM. The TGI [8] was over 10 µM, the TGI [9] was over 10 µM and the TGI [10] was over 2.58 µM. For the same compound, the TGI [11] was over 10 µM, the TGI [12] was 0.368 µM and the TGI [13] was over 3.28 µM. It also gave a TGI [14] of over 10 µM, a TGI [15] of 2.64 µM and a TGI [16] of 0.034 µM. The TGI [17] was over 10 µM, the TGI [18] was over 10 µM and the TGI [19] was 0.251 µM. For the same compound, the TGI [20] was over 10 µM, the TGI [21] was over 10 µM and the TGI [22] was over 10 µM. It also gave a TGI [23] of 0.413 µM, a TGI [24] of over 10 µM and a TGI [25] of over 10 µM. For the same compound, the TGI [26] was over 10 µM, the TGI [27] was over 10 µM and the TGI [28] was over 10 µM. It also gave a TGI [30] of 0.839 µM, a TGI [31] of over 10 µM and a TGI [32] of over 3.84 µM. It also gave a TGI [33] of 0.0791 µM, a TGI [34] of 0.105 µM and a TGI [35] of 0.389 µM. The TGI [36] was over 10 µM, the TGI [37] was over 10 µM and the TGI [58] was 0.44 µM. For the same compound, the TGI [38] was over 10 µM, the TGI [39] was over 10 µM and the TGI [40] was 1.31 µM. For the same compound, the TGI [41] was over 8.6 µM, the TGI [42] was over 10 µM and the TGI [43] was over 10 µM. It also gave a TGI [45] of over 10 µM, a TGI [46] of 2.19 µM and a TGI [47] of over 4.71 µM. The TGI [48] was over 10 µM, the TGI [49] was 1.61 µM and the TGI [50] was over 3.23 µM. It also gave a TGI [51] of over 8.96 µM, a TGI [52] of over 10 µM and a TGI [53] of over 10 µM. The TGI [54] was over 10 µM, the TGI [55] was over 10 µM and the TGI [56] was over 10 µM. The TGI [57] was over 10 µM.
